PMC7910394, “Design of PSMA ligands with modifications at the inhibitor part: an approach to reduce the salivary gland uptake of radiolabeled PSMA inhibitors?” (EJNMMI Radiopharmacy and Chemistry, 2021)
Read-outs that look alike come from different tables or passages of the source.

Experiments:
PSMA = target: T1, PSMA (Homo sapiens, UniProt Q04609); experiment: Competitive binding assay (IC50) on LNCaP cells with ([125I]I-BA)KuE as radioligand; settings: ([125I]I-BA)KuE 0.2 nM, HBSS (1% BSA), 4 °C, 1 h
T1 construct: host or cells: LNCaP human prostate cancer cells
T1 sequence (Q04609 whole entry): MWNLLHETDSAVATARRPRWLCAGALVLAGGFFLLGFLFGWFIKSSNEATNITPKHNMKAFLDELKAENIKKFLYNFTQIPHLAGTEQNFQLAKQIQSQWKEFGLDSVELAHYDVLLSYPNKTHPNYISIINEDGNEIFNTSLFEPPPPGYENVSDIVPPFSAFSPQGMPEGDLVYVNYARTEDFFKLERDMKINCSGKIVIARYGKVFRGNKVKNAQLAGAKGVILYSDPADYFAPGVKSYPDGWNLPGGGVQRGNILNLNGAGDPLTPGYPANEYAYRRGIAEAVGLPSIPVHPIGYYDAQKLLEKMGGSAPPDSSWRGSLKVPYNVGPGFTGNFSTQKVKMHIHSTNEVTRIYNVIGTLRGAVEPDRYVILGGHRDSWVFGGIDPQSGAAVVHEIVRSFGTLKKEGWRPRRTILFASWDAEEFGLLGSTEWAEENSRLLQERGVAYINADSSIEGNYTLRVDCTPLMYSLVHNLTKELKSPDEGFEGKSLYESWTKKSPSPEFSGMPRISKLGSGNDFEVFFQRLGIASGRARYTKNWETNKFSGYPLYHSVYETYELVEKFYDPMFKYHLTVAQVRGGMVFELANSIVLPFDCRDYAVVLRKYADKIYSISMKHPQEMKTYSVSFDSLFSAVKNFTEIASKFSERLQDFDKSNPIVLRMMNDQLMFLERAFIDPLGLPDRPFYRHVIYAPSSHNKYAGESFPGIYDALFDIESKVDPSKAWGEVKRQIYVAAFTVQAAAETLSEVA
Description: (§1) PSMA-positive LNCaP cells (300265; Cell Lines Service, Eppelheim, Germany) were cultivated in Dulbecco’s modified Eagle medium/Nutrition Mixture F-12 with GlutaMAX (1/1, DMEM-F12, Thermo Fisher Scientific, Darmstadt, Germany) supplemented with 10% fetal bovine serum (Merck KGaA, Darmstadt, Germany) and kept at 37 °C in a humidified 5% CO2 atmosphere. One day (24 ± 2 h) prior to all in vitro experiments, the cultivated LNCaP cells were harvested using a mixture of trypsin/ethylenediamine-tetraacetic acid (0.05%/0.02%) in PBS (Thermo Fisher Scientific, Darmstadt, Germany) and centrifuged at 1300 rpm (ca. 190×g) for 3 min at room temperature (Heraeus Megafuge 16, Thermo Fisher Scientific, Darmstadt, Germany). After centrifugation, the supernatant was disposed and the cell pellet was resuspended in culture medium. Cells were counted with a Neubauer hemocytometer (Paul Marienfeld GmbH & Co. KG, Lauda-Königshofen, Germany) and seeded in 24-well plates.
(§2) Detailed information on affinity and internalization experiments is provided in the supporting information. […] IC50 values of (^natI-BA)KuE were determined on the same day for monitoring assay performance and to identify abnormal deviations in uptake and/or affinity. […] Data were corrected for non-specific binding and normalized to the specific internalization observed for the radioiodinated reference compound (n = 3).
The culture medium was removed and the cells were washed with 500 µL of Hank’s balanced salt solution (HBSS) (Merck KGaA, Darmstadt, Germany), containing 1% bovine serum albumin (BSA) (Merck KGaA, Darmstadt, Germany). Afterwards, 200 µL of HBSS (1% BSA) were added to each well and equilibrated on ice (4 °C) for 15 min. […] Experiments were carried out in triplicates for each concentration. The final concentrations of unlabeled ligand ranged from 10^-11 - 10^-5 M and the final radioligand concentration was 0.2 nM in all binding assays. The cells were incubated for one hour at 4 °C. Incubation was terminated by removal of the incubation medium. The cells were washed with 250 µL of HBSS (1% BSA) and the wash medium was combined with the respective supernatant. This fraction represents the amount of free radioligand. The cells were lysed by addition of 250 µL of 1 M aqueous NaOH. The lysate of each well was transferred to the respective vial as well as 250 µL of 1 M NaOH used for rinsing the well. Quantification of the amount of free and bound activity was performed in a γ-counter. The corresponding IC50 values were calculated using the GraphPad PRISM7 software.

[1] = tested on: LNCaP tumor xenograft-bearing CB17-SCID mice; type: in vivo, mouse
Description: All animal experiments were conducted in accordance with general animal welfare regulations in Germany (German animal protection act, as amended on 18.05.2018, Art. 141 G v. 29.3.2017 I 626, approval no. 55.2–1-54-2532-71-13) and the institutional guidelines for the care and use of animals. To establish tumor xenografts, LNCaP cells (approx. 10^7 cells) were suspended in 200 μL of a 1/1 mixture (v/v) of DMEM F-12 and Matrigel (BD Biosciences, Heidelberg, Germany) and inoculated subcutaneously onto the right shoulder of 6–8 weeks old CB17-SCID mice (Charles River Laboratories, Sulzfeld, Germany). Mice were used for experiments when tumor size reached 5–10 mm in diameter (3–6 weeks after inoculation).
Approximately 2–10 MBq (0.20 nmol) of the ^177Lu-labeled PSMA inhibitors were injected into the tail vein of LNCaP tumor xenograft-bearing male CB17-SCID mice (n = 3 to 5). They were sacrificed by CO2 asphyxiation and cervical dislocation either 1 h or 24 h post injection (p.i.) (n = 3 for [^177Lu]Lu-5, -6 & -7 (proinhibitor compounds I-III), n = 4 for [^177Lu]Lu-10 (alkyne), n = 5 for [^177Lu]Lu-3 (carbamate I) and n = 5 for [^177Lu]Lu-11 (tetrazole)). Selected organs were removed, weighed and organ activities measured in a γ-counter.
Approximately 2 - 10 MBq (0.20 nmol) of the ^177Lu-labeled PSMA inhibitors were injected into the tail vein of LNCaP tumor xenograft-bearing male CB17-SCID mice (n = 3 to 5). They were sacrificed by CO2 asphyxiation and cervical dislocation either 1 h or 24 h post injection (p.i.) (n = 3 for [^177Lu]Lu-5, -6 & -7 (proinhibitor compounds I-III), n = 4 for [^177Lu]Lu-10 (alkyne) and n = 5 for [^177Lu]Lu-3 (carbamate I) and n = 5 for [^177Lu]Lu-11 (tetrazole)). Selected organs were removed, weighed and organ activities measured in a γ-counter.

LNCaP cells = experiment: Internalization study of 177Lu-labeled ligands in LNCaP cells, normalized to ([125I]I-BA)KuE; type: cell-based, human; settings: 1 h, 37 °C, 1.0 nM 177Lu-compound, normalized to ([125I]I-BA)KuE
Description: as §1, §2
The culture medium was removed and the cells were washed with 500 µL of DMEM-F12 containing 5% BSA. Afterwards, 200 µL of DMEM-F12 (5% BSA) were added to each well and left to equilibrate at 37 °C for 15 min. 25 µL of DMEM-F12 (5% BSA) were added to each well, followed by the addition of 25 µL of the respective ^177Lu-labeled ligand (10.0 nM in DMEM-F12 (5% BSA)). For blocking PSMA-specific binding and uptake, 25 µL of 2-(phosphonomethyl)pentane-1,5-dioic acid (2-PMPA) (100 µM in DMEM (5% BSA)) instead of DMEM-F12 (5% BSA) were added prior to radiotracer addition. […] Each experiment (control and blockade) was performed in triplicate. […] Incubation was terminated by placing the plate on ice (4 °C, 1 min) and removal of the incubation medium. The cells were washed with 250 µL of ice-cold PBS and the wash medium was combined with the respective supernatant. This fraction represents the amount of free radioligand. 250 µL of ice-cold 2-PMPA (10 µM in PBS) were added and the cells were incubated for 10 min at 4 °C. Afterwards, the cells were rinsed again with 250 µL of ice-cold PBS and the wash medium was combined with the respective supernatant. This fraction represents the amount of cell surface-bound ligand. In the last step, the cells were lysed by addition of 250 µL of 1 M aqueous NaOH. After 20 min, the lysate of each well was transferred to the respective vial as well as 250 µL of 1 M NaOH used for rinsing the well. This fraction represents the amount of internalized radioligand. Quantification of the amount of free, cell surface-bound and internalized activity was performed in a γ-counter.

CCCCC[C@H](NC(=O)N[C@@H](CCC(=O)N[C@H](CCCNC(=O)CCC(=O)NCCCC[C@@H](NC(=O)[C@@H](CNC(=O)c1ccc([Si](F)(C(C)(C)C)C(C)(C)C)cc1)NC(=O)CN1CCN(CC(=O)[O-])CCN(CC(=O)[O-])CCN(CC(=O)[O-])CC1)C(=O)O)C(=O)O)C(=O)O)C(=O)O.[Lu+3] [^natLu-8]
IC50 (PSMA): > 2 µM

CC(C)(C)[Si](F)(c1ccc(C(=O)NC[C@@H](NC(=O)CN2CCN(CC(=O)[O-])CCN(CC(=O)[O-])CCN(CC(=O)[O-])CC2)C(=O)N[C@H](CCCCNC(=O)CCC(=O)NCCC[C@@H](NC(=O)CC[C@H](NC(=O)N[C@@H](Cc2ccco2)C(=O)O)C(=O)O)C(=O)O)C(=O)O)cc1)C(C)(C)C.[Lu+3] [^natLu-9]
IC50 (PSMA): > 0.44 µM

CC(C)(C)[Si](F)(c1ccc(C(=O)NC[C@@H](NC(=O)CN2CCN(CC(=O)[O-])CCN(CC(=O)[O-])CCN(CC(=O)[O-])CC2)C(=O)N[C@H](CCCCNC(=O)CCC(=O)NCCC[C@@H](NC(=O)CC[C@H](NC(=O)O[C@@H](CCC(=O)O)C(=O)O)C(=O)O)C(=O)O)C(=O)O)cc1)C(C)(C)C.[Lu+3] [^natLu/[^177Lu]Lu-3]
IC50 (PSMA): 0.0071 ± 0.0007 µM | Biodistribution Adrenals ([1]; 1 h p.i.): 1.46 ± 0.70 % ID/g | Biodistribution Blood ([1]; 1 h p.i.): 0.97 ± 0.18 % ID/g | Biodistribution Bone ([1]; 1 h p.i.): 0.18 ± 0.02 % ID/g | Biodistribution Heart ([1]; 1 h p.i.): 0.36 ± 0.04 % ID/g | Biodistribution Intestine ([1]; 1 h p.i.): 0.36 ± 0.17 % ID/g | Biodistribution Kidneys ([1]; 1 h p.i.): 61.8 ± 25.9 % ID/g | Biodistribution Liver ([1]; 1 h p.i.): 0.87 ± 0.28 % ID/g | Biodistribution Lung ([1]; 1 h p.i.): 2.88 ± 2.96 % ID/g | Biodistribution Muscle ([1]; 1 h p.i.): 0.13 ± 0.04 % ID/g | Biodistribution Pancreas ([1]; 1 h p.i.): 0.25 ± 0.06 % ID/g | Biodistribution Parotid gland ([1]; 1 h p.i.): 0.62 ± 0.20 % ID/g | Biodistribution Spleen ([1]; 1 h p.i.): 2.51 ± 0.95 % ID/g | Biodistribution Stomach ([1]; 1 h p.i.): 0.30 ± 0.09 % ID/g | Biodistribution Submandibular gland ([1]; 1 h p.i.): 0.37 ± 0.08 % ID/g | Biodistribution Tumor ([1]; 1 h p.i.): 5.31 ± 0.94 % ID/g | Ratio Tumor-to-blood ([1]; 1 h p.i.): 5.57 ± 1.18 | Ratio Tumor-to-kidney ([1]; 1 h p.i.): 0.09 ± 0.03 | Ratio Tumor-to-liver ([1]; 1 h p.i.): 6.61 ± 2.19 | Ratio Tumor-to-muscle ([1]; 1 h p.i.): 44.1 ± 9.0 | Ratio Tumor-to-parotid gland ([1]; 1 h p.i.): 9.09 ± 3.13 | Ratio Tumor-to-submandibular gland ([1]; 1 h p.i.): 14.7 ± 3.5 | Biodistribution Adrenals ([1]; 24 h p.i.): 0.04 ± 0.01 % ID/g | Biodistribution Bone ([1]; 24 h p.i.): 0.02 ± 0.01 % ID/g | Biodistribution Heart ([1]; 24 h p.i.): 0.02 ± 0.01 % ID/g | Biodistribution Intestine ([1]; 24 h p.i.): 0.12 ± 0.06 % ID/g | Biodistribution Kidneys ([1]; 24 h p.i.): 0.31 ± 0.05 % ID/g | Biodistribution Liver ([1]; 24 h p.i.): 0.13 ± 0.05 % ID/g | Biodistribution Lung ([1]; 24 h p.i.): 0.03 ± 0.01 % ID/g | Biodistribution Muscle ([1]; 24 h p.i.): 0.01 ± 0.01 % ID/g | Biodistribution Pancreas ([1]; 24 h p.i.): 0.02 ± 0.01 % ID/g | Biodistribution Parotid gland ([1]; 24 h p.i.): 0.04 ± 0.02 % ID/g | Biodistribution Spleen ([1]; 24 h p.i.): 0.09 ± 0.01 % ID/g | Biodistribution Stomach ([1]; 24 h p.i.): 0.06 ± 0.04 % ID/g | Biodistribution Submandibular gland ([1]; 24 h p.i.): 0.03 ± 0.01 % ID/g | Biodistribution Tumor ([1]; 24 h p.i.): 1.20 ± 0.55 % ID/g | Ratio Tumor-to-blood ([1]; 24 h p.i.): 947 ± 652 | Ratio Tumor-to-kidney ([1]; 24 h p.i.): 3.80 ± 1.36 | Ratio Tumor-to-liver ([1]; 24 h p.i.): 8.94 ± 2.94 | Ratio Tumor-to-muscle ([1]; 24 h p.i.): 127 ± 92 | Ratio Tumor-to-parotid gland ([1]; 24 h p.i.): 31.8 ± 9.3 | Ratio Tumor-to-submandibular gland ([1]; 24 h p.i.): 34.5 ± 9.2 | factor by which tumor-to-submandibular gland and tumor-to-parotid gland ratios are lower than for [177Lu]Lu-1 ([1]; 24 h p.i.): 8 | %Internalization compared to the reference (LNCaP cells): 1 h: 67.8 ± 0.5%

C#CC[C@H](NC(=O)N[C@@H](CCC(=O)N[C@H](CCCNC(=O)CCC(=O)NCCCC[C@@H](NC(=O)[C@@H](CNC(=O)c1ccc([Si](F)(C(C)(C)C)C(C)(C)C)cc1)NC(=O)CN1CCN(CC(=O)[O-])CCN(CC(=O)[O-])CCN(CC(=O)[O-])CC1)C(=O)O)C(=O)O)C(=O)O)C(=O)O.[Lu+3] [^natLu/[^177Lu]Lu-10]
IC50 (PSMA): 0.138 ± 0.053 µM | Biodistribution Adrenals ([1]; 24 h p.i.): 0.02 ± 0.02 % ID/g | Biodistribution Blood ([1]; 24 h p.i.): 0.01 ± 0.01 % ID/g | Biodistribution Bone ([1]; 24 h p.i.): 0.03 ± 0.01 % ID/g | Biodistribution Heart ([1]; 24 h p.i.): 0.01 ± 0.00 % ID/g | Biodistribution Intestine ([1]; 24 h p.i.): 0.32 ± 0.29 % ID/g | Biodistribution Kidneys ([1]; 24 h p.i.): 1.29 ± 0.28 % ID/g | Biodistribution Liver ([1]; 24 h p.i.): 0.09 ± 0.04 % ID/g | Biodistribution Lung ([1]; 24 h p.i.): 0.03 ± 0.03 % ID/g | Biodistribution Pancreas ([1]; 24 h p.i.): 0.01 ± 0.01 % ID/g | Biodistribution Parotid gland ([1]; 24 h p.i.): 0.02 ± 0.00 % ID/g | Biodistribution Spleen ([1]; 24 h p.i.): 0.04 ± 0.00 % ID/g | Biodistribution Stomach ([1]; 24 h p.i.): 0.12 ± 0.11 % ID/g | Biodistribution Submandibular gland ([1]; 24 h p.i.): 0.02 ± 0.00 % ID/g | Biodistribution Tumor ([1]; 24 h p.i.): 0.10 ± 0.03 % ID/g | Ratio Tumor-to-blood ([1]; 24 h p.i.): 26.8 ± 16.9 | Ratio Tumor-to-kidney ([1]; 24 h p.i.): 0.08 ± 0.01 | Ratio Tumor-to-liver ([1]; 24 h p.i.): 1.46 ± 0.88 | Ratio Tumor-to-muscle ([1]; 24 h p.i.): 27.7 ±10.9 | Ratio Tumor-to-parotid gland ([1]; 24 h p.i.): 6.38 ± 3.06 | Ratio Tumor-to-submandibular gland ([1]; 24 h p.i.): 6.11 ± 1.78 | factor by which tumor-to-submandibular gland and tumor-to-parotid gland ratios are lower than for [177Lu]Lu-1 ([1]; 24 h p.i.): 45 | %Internalization compared to the reference (LNCaP cells): 1 h: 1.2 ± 0.4% | %Internalization compared to the reference (LNCaP cells; listed as [^177Lu]Lu-10): 1.2 ± 0.4%
